Experimental data published in ChEMBL document CHEMBL1201862, “PubChem BioAssay data set” (2004).
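96-well plates; 48 h exposure; 5 concentrations. Endpoints by linear interpolation between flanking doses. Not reached: highest tested concentration assigned. GI50: concentration for 50% inhibition of growth.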 Calls of active or inactive are those of the source. Rule as the data show it: active = GI50 up to about 1.1 µM and inactive = higher.

What was measured:
Assay in all cases: NCI tumour cell line growth inhibition, 48 h
T47D = test system: T47D
M14 = test system: M14
COLO 205 = test system: COLO 205
OVCAR-8 = test system: OVCAR-8
U-251 = test system: U-251
MDA-MB-231 = test system: MDA-MB-231
PC-3 = test system: PC-3
MCF7 = test system: MCF7
TK-10 = test system: TK-10
MOLT-4 = test system: MOLT-4
HOP-92 = test system: HOP-92
RXF 393 = test system: RXF 393
SNB-75 = test system: SNB-75
SN12C = test system: SN12C
UACC-257 = test system: UACC-257
786-0 = test system: 786-0
NCI-H226 = test system: NCI-H226
SNB-19 = test system: SNB-19
HCT-15 = test system: HCT-15
SK-MEL-2 = test system: SK-MEL-2

| SMILES | GI50 (T47D) | GI50 (M14) | GI50 (COLO 205) | GI50 (OVCAR-8) | GI50 (U-251) | GI50 (MDA-MB-231) | GI50 (PC-3) | GI50 (MCF7) | GI50 (TK-10) | GI50 (MOLT-4) | GI50 (HOP-92) | GI50 (RXF 393) | GI50 (SNB-75) | GI50 (SN12C) | GI50 (UACC-257) | GI50 (786-0) | GI50 (NCI-H226) | GI50 (SNB-19) | GI50 (HCT-15) [µM] | GI50 (SK-MEL-2) |
| --- | --- | --- | --- | --- | --- | --- | --- | --- | --- | --- | --- | --- | --- | --- | --- | --- | --- | --- | --- | --- |
| O=C(Cc1ccccc1)Nn1c(-c2ccccc2)nc2ccccc2c1=O | > 100 µM (inactive) | > 100 µM (inactive) | > 100 µM (inactive) | > 100 µM (inactive) | > 100 µM (inactive) | > 100 µM (inactive) | > 100 µM (inactive) | > 100 µM (inactive) | > 100 µM (inactive) | > 100 µM (inactive) | > 100 µM (inactive) | > 100 µM (inactive) | 8.83 µM (inactive) | > 100 µM (inactive) | > 100 µM (inactive) | > 100 µM (inactive) | > 100 µM (inactive) | > 100 µM (inactive) |  |  |
| CN(C)C(=O)c1nnsc1NN=O | > 100 µM (inactive) | > 100 µM (inactive) | > 100 µM (inactive) | > 100 µM (inactive) | > 100 µM (inactive) | > 100 µM (inactive) | > 100 µM (inactive) | > 100 µM (inactive) |  | > 100 µM (inactive) | > 100 µM (inactive) | > 100 µM (inactive) | > 100 µM (inactive) | > 100 µM (inactive) | > 100 µM (inactive) | > 100 µM (inactive) | > 100 µM (inactive) | > 100 µM (inactive) | > 100 | > 100 µM (inactive) |
| CC(NC(=O)C(C)C(=O)NCc1ccc(C(F)(F)F)cc1)C(N)=O (stereo not drawn) | > 100 µM (inactive) | > 100 µM (inactive) | > 100 µM (inactive) | > 100 µM (inactive) | > 100 µM (inactive) | > 100 µM (inactive) | > 100 µM (inactive) | > 100 µM (inactive) |  | > 100 µM (inactive) | > 100 µM (inactive) | > 100 µM (inactive) | 48.1 µM (inactive) | > 100 µM (inactive) | > 100 µM (inactive) | > 100 µM (inactive) | > 100 µM (inactive) | 63.8 µM (inactive) | > 100 | > 100 µM (inactive) |
| CC(=O)OC1COC(Nc2nc(N)n(C)c(=O)c2N=O)C(OC(C)=O)C1OC(C)=O (stereo not drawn) | > 10 µM (inactive) | > 10 µM (inactive) | > 10 µM (inactive) | > 10 µM (inactive) | > 10 µM (inactive) | > 10 µM (inactive) | > 10 µM (inactive) | > 10 µM (inactive) | > 10 µM (inactive) | > 10 µM (inactive) | > 10 µM (inactive) | > 10 µM (inactive) | > 10 µM (inactive) | > 10 µM (inactive) | > 10 µM (inactive) | > 10 µM (inactive) | > 10 µM (inactive) | > 10 µM (inactive) |  | > 10 µM (inactive) |
| O=C(O)CCCc1ccc2c(c1)C(C(=O)O)CC2 (stereo not drawn) | > 100 µM (inactive) | > 100 µM (inactive) | > 100 µM (inactive) | > 100 µM (inactive) | > 100 µM (inactive) | > 100 µM (inactive) | > 100 µM (inactive) | > 100 µM (inactive) | > 100 µM (inactive) | > 100 µM (inactive) |  | > 100 µM (inactive) | > 100 µM (inactive) | > 100 µM (inactive) | > 100 µM (inactive) | > 100 µM (inactive) | > 100 µM (inactive) | > 100 µM (inactive) | > 100 | > 100 µM (inactive) |
| O=[N+]([O-])c1ncc(N(CCO)CCO)s1 | 27.5 µM (inactive) | 34.8 µM (inactive) | 21.9 µM (inactive) | 53.5 µM (inactive) | 45.3 µM (inactive) | 67.8 µM (inactive) | 41.3 µM (inactive) | 37 µM (inactive) | 34.9 µM (inactive) | 36.6 µM (inactive) |  | 16.7 µM (inactive) | 30.8 µM (inactive) | 41.4 µM (inactive) | 25 µM (inactive) | 34 µM (inactive) | > 100 µM (inactive) | > 100 µM (inactive) | 33.3 | 21.6 µM (inactive) |
